The values that follow come from patent publication US9382267B2, “Small molecule inhibitors of nicotinamide phosphoribosyltransferase (NAMPT)” (The Curators of the University of Missouri, priority 2011, dated 2016).

Test [1] deals with A549 human lung cancer cell line. The test is described as follows: MTT assay, A549. The format is cell-based. The following applies: A549 (Lung) human tumor cell line. As to the method: (§1) A549, DLD1, T47D and PC3 were purchased from ATCC (Manassas, Va.). MTT assay kit was purchased from Promega (Madison, Wis.). FK866 and NMN were purchased from Enzo Life Sciences (Farmingdale, N.Y.) and Sigma (St Louis, Mo.) respectively.
(§2) Additional MTT assays are show in FIGS. 11(A)-(D) and FIG. 12 for compounds (33)-(37).
(§3) The assay was performed according to the manufacturers protocol (CycLex NAMPT Colorimetric Assay Kit, MBL International Corp., Woburn, Mass.). The NAMPT assay was performed according manufacturers protocol. Briefly we used the “1-Step Assay Method” for which following reagents were mixed to make assay buffer and kept at ice before starting the assay: 10 μL each of 10× Nampt assay buffer, nicotinamide, PRPP, ATP and EtOH; 2 μL each of recombinant NMNAT1, WST-1, ADH, diaphorase and D2O. The Nampt inhibition assay was performed by mixing 2 μl of various concentrations (to make 1 pM-100 nM) of FK866 or (6) (or 2 μL DMSO as vehicle control) with the following: 2 μL recombinant Nampt and 36 μL D2O. The reaction was initiated by adding 60 μL of 1-Step Assay Buffer to each well and mixed thoroughly followed by incubation at 30° C. for 20 mins. After this period, the absorbance at 450 nm was measured and compared with the positive control. […] TABLE 4 lists measured Half-Maximal Inhibitory Concentrations (IC50) against Human Tumor Cell Lines A549 (Lung), DLD1 (Colon), and T47D (Breast).
A general note: Formazan colour is commonly taken as a measure of viable cells.

The subject of test [2] is DLD1 (Colon) human tumor cell line. As to the kind of experiment: MTT assay, DLD1. Format: cell-based. As to the method: as §1, §2, §3
For test [3], the system named is T47D (Breast) human tumor cell line. The test is described as follows: MTT assay, T47D. The format is cell-based. Here is the method: as §1, §2, §3
The test system of another test is A549 cells. The test is described as follows: Cell rescue assay with nicotinamide mononucleotide (NMN). The format is cell-based, human. The note with it: A549 cells treated with 10 nM agent; 1, 10 or 100 μM NMN; 72 h; MTT. As to the method: A549 cells were treated with 10 nM (1), (5), (6), or (7). Error bars represent the mean±SD. Cell viability was measured using the MTT assay. Each measurement was repeated 4 times.
Cell rescue assays were conducted using Nicotinamide Mononucleotide (NMN) as described by Busso et al. (Busso, N.; Karababa, M.; Nobile, M.; Rolaz, A.; Van Gool, F.; Galli, M.; Leo, O.; So, A.; De Smedt, T. Pharmacological inhibition of nicotinamide phosphoribosyltransferase/visfatin enzymatic activityidentifies a new inflammatory pathway linked to NAD. PLoS One 2008, […], e2267.) Briefly, A549 and DLD1 cells were plated at a density of 10,000 cells per well in 96 well plates for overnight. Cells were then treated with 10 nM concentrations of agents (1), (5)-(7). Simultaneously, concentrations of 1, 10 or 100 μM NMN were added to the cultures. Cultures were then continued for 72 h. MTT reagent was added to the cells after 72 h for a period of 3 h and then MTT crystals were solubilized using solubilization buffer. Readings were taken at 570 nm wavelength. Control cells were considered as 100% survival to plot the inhibition and rescue graph. The experiments were repeated four times.

Another test deals with DLD1. The test is described as follows: Scratch test (wound healing) assay. The format is cell-based, human. The note with it: for inhibition of cancer cell migration: 1 nM test agent, 24 h, FIG. 9; for relative potencies of the compounds: wound healing experiments, consistent with cell viability assays. Here is the method: The antimigratory effects of compounds (5)-(7) were compared with FK866 by employing a wound healing or scratch test analysis using various cell cancer lines. The assay measures the ability of a drug to inhibit cancer cell migration across a gap “scratched” in a confluent layer of cells. The cells were imaged immediately after the formation of the wound and then incubated with 1 nM concentrations of each test agent. After 24 h, the wounds were imaged again and compared with a control group of untreated cells. […] The results of the wound healing experiments are consistent with those from the cell viability assays with regard to the relative potencies of the compounds (6)>(7)>(5)>FK866.

Like-named read-outs stand apart in the source and are kept apart here.

On to `O=C(/C=C/c1cccnc1)NCCCCC1CCN(C(=O)c2ccccc2)CC1` [Compound 1, reference compound], for which the IC50 in test [1] came out at 1.62 ± 0.04 nM; in test [2] (DLD-1), 3.14 ± 0.11 nM; in test [3] it was 3.2 ± 0.16 nM. Further, the “cell rescue by NMN” value with A549 cells is “nearly complete rescue”. The “inhibition of cancer cell migration” value in the test on DLD1 is “partially inhibited cell migration”. The “relative potencies of the compounds” value with DLD1 is reported as “(6)>(7)>(5)>FK866”.

Turning to “1-(4′-(Trans-3″-(3′″pyridyl)acrylamido)butyl)-1,7-dicarba-closo-dodecaborane [Compound 6]”, the IC50 in test [1] amounted to 0.41 ± 0.01 nM; in test [2] it was 0.31 ± 0.01 nM; in test [3], 0.32 ± 0.02 nM. In addition, the “cell rescue by NMN” value in the test with A549 cells is “nearly complete rescue”. Besides, the “inhibition of cancer cell migration” value with DLD1 is recorded as “highest potency”. For the same compound, in the test with DLD1, the “relative potencies of the compounds” value is “(6)>(7)>(5)>FK866”.

“1-(4′-(Trans-3″-(3′″-pyridyl)acrylamido)butyl)-1,12-dicarba-closo-dodecaborane [Compound 7]”: the IC50 was determined as 0.99 ± 0.03 nM in test [1], 2.2 ± 0.12 nM in test [2] and 0.58 ± 0.03 nM in test [3]. The “cell rescue by NMN” value with A549 cells is listed as “nearly complete rescue”. The “relative potencies of the compounds” value with DLD1 is given as “(6)>(7)>(5)>FK866”.

On to `O=C(/C=C/c1cccnc1)NCCC#CC12CC3CC(CC(C3)C1)C2` [Compound 4], for which the values for the IC50 in test [1], in test [2] (DLD-1) and in test [3] were 88.9 ± 1.1 nM, 20.3 ± 0.44 nM and 186 ± 4.1 nM, respectively.

As usually defined, the IC50 is the midpoint of a concentration-inhibition curve. The low end stands for higher potency, the high end for lower potency.
